From publication PMC12526156, “Optimization of the Macrocyclic Tetrapeptide [D-Trp]CJ-15,208 to Prevent Stress-Induced Relapse of Cocaine-Seeking Behavior” (Molecules, 2025)
≈ marks a conversion by molar mass, not a printed value. Where a SMILES comes first, the peptide text is derived from it. [ ]: non-standard residue; d: D form. dPhe(F5) = N[C@H](Cc1c(F)c(F)c(F)c(F)c1F)C(=O)O; dPhe(4-NH2) = Nc1ccc(C[C@@H](N)C(=O)O)cc1; dPhe(4-Me) = Cc1ccc(C[C@@H](N)C(=O)O)cc1; dPhe(2-Me) = Cc1ccccc1C[C@@H](N)C(=O)O; dPhe(4-F) = N[C@H](Cc1ccc(F)cc1)C(=O)O; dPhe(2-F) = N[C@H](Cc1ccccc1F)C(=O)O

Key:
[1] = Metabolic stability in human liver microsomes; format: in vitro ADME; conditions: 1 mg protein/mL; for half-life / microsomal CLint: microsomes
Description: (§1) Evaluation of the metabolic stability of the macrocyclic tetrapeptides by human and mouse liver microsomes was performed by Curia Global (Buffalo, NY, USA). […]

hKOR [2] = molecular target: T1, hKOR (Homo sapiens, UniProt P41145); assay: KOR cAMP assay using GloSensor-22F, agonist mode (KOR-CHO-GLO cells); format: cell-based; conditions: read-out: KOR Efficacy (%)
[3] = Metabolic stability in mouse liver microsomes; format: in vitro ADME; conditions: 1 mg protein/mL; for half-life / microsomal CLint: microsomes
Description: as §1

[4] = Kinetic aqueous solubility; format: physicochemical; conditions: 1% DMSO, pH 7.4
From the text: Table A1 Stability of [D-Trp]- and [D-Phe^4]CJ-15,208 and selected analogs in human (HLMs) and mouse liver microsomes (MLMs)^1. and kinetic aqueous solubility. | column: Solubility ^2 / (µM)

hKOR [5] = molecular target: T1, hKOR; assay: Competition binding, [3H]U69,593, hKOR-CHO membranes; conditions: for Ki: [3H]U69,593, human KOR, ± S.E.M., three independent experiments, read-out: KOR Ki
human MOR = molecular target: T2, human MOR (Homo sapiens, UniProt P35372); assay: biochemical; format: binding; conditions: [3H]DAMGO, human MOR; ± S.E.M., three independent experiments; read-out: MOR Ki
T2 construct: expressed in transfected cells

[6] = 1 µM compound, 37 °C, read-out: HLM t1/2
[7] = 1 µM compound, 37 °C, read-out: MLM t1/2

Structure (SMILES) | half-life [1, 6] | microsomal CLint ([1]; read-out: HLM CLint) | Emax at 10 µM (hKOR [2]) | half-life [3, 7] | microsomal CLint ([3]; read-out: MLM CLint) | solubility kinetic [4] | Ki (hKOR [5]) | Selectivity (MOR Ki/KOR Ki) (hKOR [5]) | Ki (human MOR) | other results
Cc1ccc(C[C@H]2NC(=O)[C@H](Cc3ccccc3)NC(=O)[C@H]3CCCN3C(=O)[C@H](Cc3ccccc3)NC2=O)cc1 [Analog 15] (cyclo(F[dP]F[dPhe(4-Me)])) | 5.4 min | 129 µL/min/mg | 18 ± 1.4% | 2.9 min | 236 µL/min/mg | 24 µM (≈ 13.3 µg/mL) | – | – | – | –
O=C1N[C@H](Cc2ccc(F)cc2)C(=O)N[C@@H](Cc2ccccc2)C(=O)N2CCC[C@@H]2C(=O)N[C@H]1Cc1ccccc1 [Analog 7] (cyclo(F[dP]F[dPhe(4-F)])) | 2.3 min | 296 µL/min/mg | 5.5 ± 7.9% | 3.4 min | 202 µL/min/mg | 25 µM (≈ 13.9 µg/mL) | – | – | – | –
O=C1N[C@H](Cc2c(F)c(F)c(F)c(F)c2F)C(=O)N[C@@H](Cc2ccccc2)C(=O)N2CCC[C@@H]2C(=O)N[C@H]1Cc1ccccc1 [Analog 12] (cyclo(F[dP]F[dPhe(F5)])) | – | – | – | – | – | – | 310 ± 9.9 nM | – | – | fold decrease in KOR affinity (fluorine substitution on D-Phe^4) (hKOR [5]): 13 fold
Cc1ccccc1C[C@H]1NC(=O)[C@H](Cc2ccccc2)NC(=O)[C@H]2CCCN2C(=O)[C@H](Cc2ccccc2)NC1=O [Analog 13] (cyclo(F[dP]F[dPhe(2-Me)])) | – | – | – | – | – | – | 110 ± 13 nM | 2.5 | 280 ± 8 nM | –
O=C1N[C@H](Cc2ccccc2F)C(=O)N[C@@H](Cc2ccccc2)C(=O)N2CCC[C@@H]2C(=O)N[C@H]1Cc1ccccc1 [Analog 5] (cyclo(F[dP]F[dPhe(2-F)])) | – | – | – | – | – | 15 µM (≈ 8.35 µg/mL) | 39 ± 0.57 nM | 9 | 350 ± 22 nM | half-life at 1 µM ([1]; human liver microsomes, 1 µM compound, 37 °C, read-out: HLM t1/2): 1.9 min; microsomal CLint at 1 µM ([1]; human liver microsomes, read-out: HLM CLint): 373 µL/min/mg; half-life at 1 µM ([3]; mouse liver microsomes, 1 µM compound, 37 °C, read-out: MLM t1/2): 1.6 min; microsomal CLint at 1 µM ([3]; mouse liver microsomes, read-out: MLM CLint): 430 µL/min/mg
Nc1ccc(C[C@H]2NC(=O)[C@H](Cc3ccccc3)NC(=O)[C@H]3CCCN3C(=O)[C@H](Cc3ccccc3)NC2=O)cc1 [Analog 17] (cyclo(F[dP]F[dPhe(4-NH2)])) | – | – | – | – | – | – | – | – | – | inhibition at 10 µM (hKOR [5]; at 10 μM): 65%
